We go through 1 compound from patent US20250090482A1, “COMPOSITIONS AND METHODS FOR THE TREATMENT OF DEPRESSION” (Janssen Pharmaceuticals, Inc., priority 2022, published 2025).

The test system of assay [1] is TRD patients, 3MM biomarker signature positive or negative. Nature of the assay: 3MM biomarker signature analysis of MADRS treatment effect across esketamine TRD trials. Format: in vivo, human. The note with it: for treatment effect, improvement over placebo: end of double blind treatment. The method, then: (§1) Samples of venous blood were obtained from patients and healthy control subjects from subject described in Example 1 and from the other clinical trials referenced herein. Serum or plasma was prepared from the samples of venous blood. Measurements of human CRP and IL-6-R were performed in serum using an MSD Sector 6000 with the kits #K151STD and K151ALC (MesoScale Discovery, Rockville, MD). Human TNFα was quantified in serum using a Simoa HD-1 analyzer with kit #143 (Quanterix, Lexington, MA). All measures were performed according to kit manufacturer's recommendations.
(§2) As used in the following biomarker assay analysis, treatment (TRT) refers to treatment with intranasal esketamine plus optionally an oral antidepressant and placebo (PBO) refers to treatment with a placebo plus optionally an oral antidepressant.
(§3) The following biomarker signatures were employed: • 3MM: Inflammatory biomarker signature with positive status defined by CRP>3 mg/L and (TNFα>[…] or sIL6R>25 ng/mL). • 2MM: Inflammatory biomarker signature with positive status defined by CRP>3 mg/L and sIL6R>25 ng/mL. • CRP: Inflammatory biomarker signature with positive status defined by CRP>3 mg/L/
(§4) The 3MM signature was tested in clinical trials for adjunctive MDD, including treatment-resistant MDD (TRD) and MDD with suicidal ideation (SUI). […] Significant was driven by Esketamine (ESK) TRD trials.

Assay [2] has as its system MDD with suicidal ideation (SUI). Nature of the assay: 3MM biomarker signature analysis in esketamine trials with suicidal ideation (SUI). Format: in vivo, human. The method, then: as §1, §2, §3, §4

Where “and” joins values, the source holds several entries; their conditions need not be identical. Equal values may be shown once.

For `CN[C@]1(c2ccccc2Cl)CCCCC1=O` [esketamine, (S)-2-(2-chlorophenyl)-2-(methylamino)cyclohexanone], the “treatment effect, improvement over placebo” value was 2 MADRS points and 2.0 MADRS points in assay [1] (3MM biomarker signature negative subjects); 7.8 MADRS points in assay [1] (3MM biomarker signature positive subjects). For the same compound, in assay [1] (3MM positive minus negative), the “difference between subtypes (Signature advantage)” value amounted to 5.8 point. For the same compound, the “prediction of treatment effect by 3MM status at baseline” value in assay [2] was “did not predict treatment effect”.
